Reference: publication PMC7993387, “The preclinical inhibitor GS441524 in combination with GC376 efficaciously inhibited the proliferation of SARS-CoV-2 in the mouse respiratory tract” (Emerging Microbes & Infections, 2021)

Experiments:
[1] = Cell viability (Cell Titer-Glo) in Vero E6 cells; assay type: cell-based; conditions: African green monkey
Method: Cell viability was determined using the Cell Titer-Glo kit (Promega, Madison, WI, USA) following the manufacturer’s instructions. Briefly, Vero E6 cells were seeded in 96-well plates with opaque walls. […] Cell Titer-Glo reagent was added to each well, and luminescence was measured using a GloMax 96 Microplate Luminometer (Promega, Madison, WI, USA).

SARS-CoV-2 (HRB26M) = experiment: microbe, parasite or virus in culture; assay type: cell-based; conditions: Severe acute respiratory syndrome coronavirus 2, Vero C1008, 24 h, combination molar ratio 1:1, read-out: EC50 (50% inhibitory concentration)
[2] = Single-dose pharmacokinetics in BALB/c mice; assay type: in vivo; conditions: for half-life / AUC(0-t) / CL/F / Cmax / Tmax / Vd/F / MRT last / MRT inf: BALB/c, mouse, plasma; for MRT last: read-out: MRT0−t; for MRT inf: read-out: MRT0−∞
Method: (§1) Healthy SPF BALB/c mice (7-8 weeks) and SD rats (4-6 weeks) were used in a single-dose PK study. […] The blood was collected at 0, 0.083, 0.25, 0.5, 1, 2, 4, 8, 12 and 24 h and placed in a precooled polypropylene centrifuge tube containing 3.0 µl of 40% EDTAK2. Then, the whole blood was centrifuged at 7800 g/min for 10 min at 4°C. Plasma was collected and stored in a freezer at −80°C. Plasma drug concentration was analyzed using LC-MS/MS. Pharmacokinetic parameters were calculated using WinNonlin software (version 6.4), and a non-atrioventricular model was used for data fitting. The data were analyzed using Microsoft Excel 2016 and GraphPad Prism 7.0.

[3] = Single-dose pharmacokinetics in SD rats; assay type: in vivo; conditions: for AUC(0-t) / Tmax / Vd/F / CL/F / Cmax / half-life / MRT last / MRT inf: Sprague-Dawley, rat, plasma, im; for MRT last: read-out: MRT0−t; for MRT inf: read-out: MRT0−∞
Method: as §1

[4] = im, BALB/c mice, alone (GC376 111 mg/kg; GS441524 67 mg/kg)
[5] = im, BALB/c mice, i.m., alone (GC376 111 mg/kg; GS441524 67 mg/kg)
[6] = im, BALB/c mice, i.m., combined (GC376 55.5 + GS441524 33.5 mg/kg)
[7] = alone (GC376 111 mg/kg; GS441524 67 mg/kg)
[8] = combined (GC376 55.5 + GS441524 33.5 mg/kg)
[9] = im, 33.5 mg/kg, BALB/c mice, i.m., combined (GC376 55.5 + GS441524 33.5 mg/kg)
[10] = 33.5 mg/kg, i.m., combined (GC376 55.5 + GS441524 33.5 mg/kg)

CC(C)CC(NC(=O)OCc1ccccc1)C(=O)NC(CC1CCNC1=O)C(O)S(=O)(=O)O (centres unmarked) [GC376]
CC50 at 24 h [1]: > 250 µM | EC50 (SARS-CoV-2 (HRB26M)): 0.881 ± 0.109 µM | Cmax of GC376 relative to that of GS441524 ([2]; BALB/c mice, i.m., alone): approximately 1.2 fold | clearance rate (CL/F) of GC376 relative to that of GS441524 ([2]; BALB/c mice, i.m., alone): approximately 3.1 fold | half-life ([2]; (GC376 55.5 + GS441524 33.5 mg/kg)): 0.81 ± 0.22 h | AUC(0-t) [2, 4]: 55300 ± 11300 ng·h/mL | CL/F [2, 4]: 33.1 mL/min/kg | Cmax [2, 4]: 46700 ± 10700 ng/mL | Tmax [2, 4]: 0.22 ± 0.07 h | Vd/F [2, 4]: 2.87 ± 0.432 L/kg | half-life [2, 4]: 1.12 ± 0.53 h | MRT last [2, 5]: 1.05 ± 0.12 h | MRT inf [2, 5]: 1.38 ± 0.59 h | AUC(0-t) [2, 6]: 27800 ± 4410 ng·h/mL | CL/F [2, 6]: 33.9 mL/min/kg | Cmax [2, 6]: 30040 ± 220 ng/mL | Tmax [2, 6]: 0.25 h | Vd/F [2, 6]: 2.34 ± 0.617 L/kg | MRT last [2, 6]: 0.79 ± 0.09 h | MRT inf [2, 6]: 0.88 ± 0.12 h | AUC(0-t) [3]: 42400 ± 6440 ng·h/mL | Tmax [3]: 1.4 ± 0.49 h | Vd/F [3]: 5.17 ± 1.87 L/kg | AUC(0-t) [3, 7]: 92100 ± 9990 ng·h/mL | CL/F [3, 7]: 20.1 mL/min/kg | Cmax [3, 7]: 12600 ± 1900 ng/mL | Tmax [3, 7]: 1.3 ± 0.6 h | Vd/F [3, 7]: 6.75 ± 1.04 L/kg | half-life [3, 7]: 3.87 ± 0.49 h | MRT last [3, 7]: 5.83 ± 0.74 h | MRT inf [3, 7]: 6.06 ± 0.64 h | CL/F [3, 8]: 21.9 mL/min/kg | Cmax [3, 8]: 11800 ± 1630 ng/mL | half-life [3, 8]: 2.75 ± 0.91 h | MRT last [3, 8]: 2.97 ± 0.41 h | MRT inf [3, 8]: 3.32 ± 0.57 h | Cmax of GC376, fold lower than GS441524 ([3]; i.m., alone): approximately 2.5 fold | clearance rate (CL/F) of GC376 relative to that of GS441524 ([3]; i.m., alone): approximately 2.9 fold

N#C[C@@]1(c2ccc3c(N)ncnn23)O[C@H](CO)[C@@H](O)[C@H]1O [GS441524]
CC50 at 24 h [1]: > 250 µM | EC50 (SARS-CoV-2 (HRB26M)): 5.05 ± 2.12 µM | AUC0−t of GS441524 relative to that of GC376 ([2]; BALB/c mice, i.m., alone): approximately 1.9 fold | AUC(0-t) [2, 9]: 49000 ± 11700 ng·h/mL | CL/F [2, 9]: 11.8 mL/min/kg | Cmax [2, 9]: 16000 ± 2200 ng/mL | Tmax [2, 9]: 0.55 ± 0.24 h | Vd/F [2, 9]: 1.68 ± 0.282 L/kg | half-life [2, 9]: 1.67 ± 0.24 h | MRT last [2, 9]: 2.37 ± 0.73 h | MRT inf [2, 9]: 2.48 ± 0.71 h | AUC(0-t) [2, 4]: 107000 ± 16800 ng·h/mL | CL/F [2, 4]: 10.7 mL/min/kg | Cmax [2, 4]: 39600 ± 2930 ng/mL | Tmax [2, 4]: 0.8 ± 0.24 h | Vd/F [2, 4]: 1.37 ± 0.129 L/kg | half-life [2, 4]: 1.51 ± 0.16 h | MRT last [2, 5]: 2.07 ± 0.42 h | MRT inf [2, 5]: 2.15 ± 0.42 h | AUC(0-t) ([3]; 33.5 mg/kg): 88300 ± 26800 ng·h/mL | Tmax ([3]; 33.5 mg/kg): 3.4 ± 1.2 h | Vd/F ([3]; 33.5 mg/kg): 2.71 ± 1.25 L/kg | CL/F [3, 10]: 6.6 mL/min/kg | Cmax [3, 10]: 10500 ± 1850 ng/mL | half-life [3, 10]: 5.13 ± 2.56 h | MRT last [3, 10]: 6.03 ± 1.37 h | MRT inf [3, 10]: 7.57 ± 2.93 h | AUC(0-t) [3, 7]: 183000 ± 64400 ng·h/mL | CL/F [3, 7]: 7.05 mL/min/kg | Cmax [3, 7]: 31000 ± 8400 ng/mL | Tmax [3, 7]: 2 ± 1.1 h | Vd/F [3, 7]: 2.25 ± 0.946 L/kg | half-life [3, 7]: 3.8 ± 1.17 h | MRT last [3, 7]: 4.5 ± 1.11 h | MRT inf [3, 7]: 4.78 ± 1.49 h | AUC0−t of GS441524, fold higher than GC376 ([3]; i.m., alone): approximately 2.0 fold
